From BindingDB's records for doi:10.1021/jm9707838 (Smithkline Beecham, 1998)

Legend:
[1] = Inhibition of V-ATPase-driven proton transport in membrane vesicles derived from bovine chromaffin granules (bCG).
[2] = Inhibition of V-ATPase-driven proton transport in membrane vesicles derived from chicken osteoclasts (cOc).
[3] = Inhibition of V-ATPase-driven proton transport in membrane vesicles derived from chicken osteoclasts (cOc)
[4] = Inhibition of V-ATPase-driven proton transport in membrane vesicles derived from bovine chromaffin granules (bCG)

Structure (SMILES) | IC50 [1] | IC50 [2] | IC50 [3] | IC50 [4]
COC(=O)[C@@H](C)[C@H](O)[C@H](C)[C@H]1OC(=O)/C(OC)=C/C(C)=C/[C@@H](C)C(=O)[C@@H](C)C/C(C)=C/C=C/[C@@H]1OC [(2S,3R,4S)-4-((4E,6E,12E,14Z)-(2R,3S,9S,11R)-3,15-Dimethoxy-7,9,11,13-tetramethyl-10,16-dioxo-oxacyclohexadeca-4,6,12,14-tetraen-2-yl)-3-hydroxy-2-methyl-pentanoic acid methyl ester] | > 10 µM | > 10 µM |  | 
CO/C1=C\C(C)=C\[C@@H](C)C(=O)[C@@H](C)C/C(C)=C/C=C/[C@H](OC)[C@@H]([C@@H](C)[C@@H](O)[C@H](C)C(=O)O)OC1=O [(2S,3R,4S)-4-((4E,6E,12E,14Z)-(2R,3S,9S,11R)-3,15-Dimethoxy-7,9,11,13-tetramethyl-10,16-dioxo-oxacyclohexadeca-4,6,12,14-tetraen-2-yl)-3-hydroxy-2-methyl-pentanoic acid] | > 10 µM | > 10 µM |  | 
CO/C1=C\C(C)=C\[C@@H](C)C(=O)[C@@H](C)C/C(C)=C/C=C/[C@H](OC)[C@@H]([C@@H](C)[C@@H](O)[C@H](C)[C@@]2(O)C[C@@H](C(=O)Oc3ccccc3)[C@H](C)[C@@H](C(C)C)O2)OC1=O [2-[3-(3,15-Dimethoxy-7,9,11,13-tetramethyl-10,16-dioxo-oxacyclohexadeca-4,6,12,14-tetraen-2-yl)-2-hydroxy-1-methyl-butyl]-2-hydroxy-6-isopropyl-5-methyl-tetrahydro-pyran-4-carboxylic acid phenyl ester] |  |  | > 10 µM | > 10 µM
CO/C1=C\C(C)=C\[C@@H](C)[C@@H](O)[C@@H](C)C/C(C)=C/C=C/[C@H](OC)[C@@H]([C@@H](C)[C@@H](O)[C@H](C)C(=O)O)OC1=O [(2S,3R,4S)-3-Hydroxy-4-((4E,6E,12E,14Z)-(2R,3S,9S,10S,11R)-10-hydroxy-3,15-dimethoxy-7,9,11,13-tetramethyl-16-oxo-oxacyclohexadeca-4,6,12,14-tetraen-2-yl)-2-methyl-pentanoic acid] | > 10 µM | > 10 µM |  | 
